Consider five compounds from patent publication US9237747B2, “Herbicidal compositions comprising 4-amino-3-chloro-5-fluoro-6-(4-chloro-2-fluoro-3-methoxyphenyl) pyridine-2-carboxylic acid or a derivative thereof and insecticides” (priority 2013, dated 2016).

The test system of one test is ECHCG. It counts as in vivo, Echinochloa crus-galli. On the procedure:
(§1) Seeds or nutlets of the desired test plant species were planted in a soil matrix prepared by mixing a loam or sandy loam soil (e.g., 28.6 percent silt, 18.8 percent clay, and 52.6 percent sand, with a pH of about 5.8 and an organic matter content of about 1.8 percent) and calcareous grit in an 80 to 20 ratio. The soil matrix was contained in plastic pots with a volume of 1 quart and a surface area of 83.6 square centimeters (cm^2). […] The plants were grown for 8-22 days in a greenhouse with an approximate 14 hour (h) photoperiod which was maintained at about 29° C. during the day and 26° C. during the night. Nutrients (Peters Excel® 15-5-15 5-Ca 2-Mg and iron chelate) were applied in the irrigation solution as needed and water was added on a regular basis. Supplemental lighting was provided with overhead metal halide 1000-Watt lamps as necessary. The plants were employed for testing when they reached the first through fourth true leaf stage.
(§2) Treatments consisted of the acid or esters of 4-amino-3-chloro-6-(4-chloro-2-fluoro-3-methoxyphenyl)-5-fluoropyridine-2-carboxylic acid (Compound A), each formulated as an SC (suspension concentrate), and various insecticidal components alone and in combination. Forms of compound A were applied on an acid equivalent basis.
(§3) For treatments comprised of formulated compounds, measured amounts of compounds were placed individually in 25 mL glass vials and diluted in a volume of 1.25% volume per volume (v/v) Agri-Dex® crop oil concentrate to obtain 12× stock solutions. […] Application solutions were prepared by adding an appropriate amount of each stock solution (e.g., 1 mL) and diluted to the appropriate final concentrations with the addition of […] of an aqueous mixture of 1.25% (v/v) crop oil concentrate so that the final spray solutions contained 1.25+/−0.05% (v/v) crop oil concentrate.
(§4) As required, additional water and/or 97:3 v/v acetone/DMSO was added to individual application solutions so that the final acetone and DMSO concentrations of the application solutions being compared were 8.1% and 0.25%, respectively.
(§5) All stock solutions and applications solutions were visually inspected for compound compatibility prior to application. Spray solutions were applied to the plant material with an overhead Mandel track sprayer equipped with 8002E nozzles calibrated to deliver 187 L/ha over an application area of 0.503 square meters (m^2) at a spray height of 18 to 20 inches (46 to 50 cm) above average plant canopy height. Control plants were sprayed in the same manner with the solvent blank.
(§6) The treated plants and control plants were placed in a greenhouse as described above and watered by sub-irrigation to prevent wash-off of the test compounds. After approximately 3 weeks, the condition of the test plants as compared to that of the untreated plants was determined visually and scored on a scale of 0 to 100 percent where 0 corresponds to no injury or growth inhibition and 100 corresponds to complete kill.
(§7) Colby's equation was used to determine the herbicidal effects expected from the mixtures (Colby, S. R. Calculation of the synergistic and antagonistic response of herbicide combinations. Weeds 1967, 15, 20-22.).
(§8) The following equation was used to calculate the expected activity of mixtures containing two active ingredients, A and B: Expected=A+B−(A×B/100)

Another test has as its system IPOHE. It counts as in vivo, Ipomoea hederacea. The procedure:
as §1, §2, §3, §4, §5, §6, §7, §8

Another test has as its system LEFCH. Description: whole plant or invertebrate. It counts as in vivo, Leptochloa chinensis. The procedure:
as §1, §2, §3, §4, §5, §6, §7, §8

The next test has as its system DIGSA. It counts as in vivo, Digitaria sanguinalis. The procedure:
as §1, §2, §3, §4, §5, §6, §7, §8

The test system of another test is CYPIR. It counts as in vivo, Cyperus iria.
Source text: (§9) Seeds or nutlets of the desired test plant species were planted in a soil matrix prepared by mixing a loam or sandy loam soil (e.g., 28.6 percent silt, 18.8 percent clay, and 52.6 percent sand, with a pH of about 5.8 and an organic matter content of about 1.8 percent) and calcareous grit in an 80 to 20 ratio. The soil matrix was contained in plastic pots with a volume of 1 quart and a surface area of 83.6 square centimeters (cm^2). When required to ensure good germination and healthy plants, a fungicide treatment and/or other chemical or physical treatment was applied. The plants were grown for 8-22 days in a greenhouse with an approximate 14 hour (h) photoperiod which was maintained at about 29° C. during the day and 26° C. during the night. Nutrients (Peters Excel® 15-5-15 5-Ca 2-Mg and iron chelate) were applied in the irrigation solution as needed and water was added on a regular basis. Supplemental lighting was provided with overhead metal halide 1000-Watt lamps as necessary. The plants were employed for testing when they reached the first through fourth true leaf stage.
as §2
(§10) Treatment requirements were calculated based upon the rates being tested, the concentration of active ingredient or acid equivalent in the formulation, and a 12 milliliter (mL) application volume at a rate of 187 liters per hectare (L/ha).
as §3, §4, §5, §6, §7, §8

The next test deals with BRAPP. Description: Postemergence foliar-applied weed control, direct-seeded rice (greenhouse). In kind it is in vivo, Brachiaria platyphylla.
Source text: as §9, §2, §10, §3, §4, §5, §6, §7, §8

The next test concerns CYPES. It counts as in vivo, Cyperus esculentus. The procedure:
as §1, §2, §3, §4, §5, §6, §7, §8

Molecules are shown by their SMILES. Counter-ions that a name gives are not always drawn. Like-named read-outs stand apart in the source and are kept apart here.

As to `CC1(C)C(C=C(Cl)Cl)C1C(=O)OC(C#N)c1cccc(Oc2ccccc2)c1` (racemic) [Cypermethrin, (RS)-α-cyano-3-phenoxybenzyl(1RS)-cis-trans-3-(2,2-dichlorovinyl)-2,2-dimethylcyclopropanecarboxylate, reference compound], the “Visual Weed Control (%) - 22 DAA ECHCG Obs” value with ECHCG (7.5 g ai/ha alone), in the test with ECHCG (22.5 g ai/ha alone) and in the test with ECHCG (60 g ai/ha alone) was 0% in each case. For the same compound, the “Visual Weed Control (%) - 22 DAA IPOHE Obs” value in the test with IPOHE (7.5 g ai/ha alone), in the test with IPOHE (22.5 g ai/ha alone) and in the test on IPOHE (60 g ai/ha alone) was 0% in each case. Moreover, in the test on LEFCH (Dinebra chinensis, post-emergence, 528 h, 7.5 g ai/ha alone, read-out: Visual Weed Control (%) - 22 DAA LEFCH Obs), the pest or weed control at […] turned out to be 0%. In addition, the pest or weed control at 22.5 g/ha in the test on LEFCH (Dinebra chinensis, post-emergence, 528 h, 22.5 g ai/ha alone, read-out: Visual Weed Control (%) - 22 DAA LEFCH Obs) is 0%. Moreover, the pest or weed control at 60 g/ha in the test on LEFCH (Dinebra chinensis, post-emergence, 528 h, 60 g ai/ha alone, read-out: Visual Weed Control (%) - 22 DAA LEFCH Obs) stood at 0%. Moreover, the “Visual Weed Control (%) - 21 DAA DIGSA Obs” value in the test with DIGSA (15 g ai/ha alone), in the test on DIGSA (30 g ai/ha alone) and in the test with DIGSA (60 g ai/ha alone) was 0% in each case.
For the compound `CC1(C)[C@H](C(=O)O[C@H](C#N)c2cccc(Oc3ccccc3)c2)[C@@H]1/C=C(\Cl)C(F)(F)F` (racemic) [Lambda cyhalothrin], the “Visual Weed Control (%) - 21 DAA ECHCG Obs” value in the test on ECHCG (21 DAA, 35 g ai/ha alone) was 0%. For the same compound, in the test on IPOHE (21 DAA, 35 g ai/ha alone), the “Visual Weed Control (%) - 21 DAA IPOHE Obs” value was determined as 0%.
For the compound `COP(=O)(NC(C)=O)SC` (centres unmarked) [Acephate, O,S-dimethyl acetylphosphoramidothioate], the “Visual Weed Control (%) - 21 DAA CYPIR Obs” value with CYPIR (140 g ai/ha alone), in the test with CYPIR (280 g ai/ha alone) and in the test on CYPIR (560 g ai/ha alone) was 0% throughout. In addition, the “Visual Weed Control (%) - 21 DAA BRAPP Obs” value with BRAPP (140 g ai/ha alone), in the test on BRAPP (280 g ai/ha alone) and in the test with BRAPP (560 g ai/ha alone) was 0% in each case. Further, in the test on IPOHE (280 g ai/ha alone), the “Visual Weed Control (%) - 21 DAA IPOHE Obs” value is 10%.
Consider `CNC(=O)Oc1cccc2c1OC(C)(C)C2` [Carbofuran, 2,3-dihydro-2,2-dimethylbenzofuran-7-yl methylcarbamate], for which the “Visual Weed Control (%) - 20 DAA CYPES Obs” value in the test on CYPES (125 g ai/ha alone) and in the test on CYPES (250 g ai/ha alone) was 0% in each case. For the same compound, in the test with IPOHE (500 g ai/ha alone), the “Visual Weed Control (%) - 21 DAA IPOHE Obs” value was 0%. The “Visual Weed Control (%) - 21 DAA LEFCH Obs” value in the test with LEFCH (500 g ai/ha alone) was determined as 0%.
Consider `CN(C)C(CSC(N)=O)CSC(N)=O` [Cartap Hydrochloride, S,S′-(2-dimethylaminotrimethylene)bis(thiocarbamate), reference compound], for which the “Visual Weed Control (%) - 22 DAA ECHCG Obs” value with ECHCG (250 g ai/ha alone) and with ECHCG (500 g ai/ha alone) was 0% each time. The “Visual Weed Control (%) - 22 DAA IPOHE Obs” value in the test on IPOHE (250 g ai/ha alone) worked out at 10%; with IPOHE (500 g ai/ha alone), 0%.
